The values that follow are results of earlier work, collected in EP4632015A1, “COMPOUNDS FOR USE IN IN VIVO FLUORESCENCE-LIFETIME IMAGING” (Université de Bourgogne, priority 2024, dated 2025).

For the series the following is noted: in a biological environment.

As to `CC1(C)C(/C=C/C=C/C=C/C=C2\N(CCCCS(=O)(=O)[O-])c3ccc4ccccc4c3C2(C)C)=[N+](CCCCS(=O)(=O)[O-])c2ccc3ccccc3c21.[Na+]` [ICG], the lifetime result is on record as “less than 1 ns”.

`CC1(C)C(=CC=C2CCCC(C=CC3=[N+](CCCCCC(=O)[O-])c4ccc(S(=O)(=O)[O-])cc4C3(C)C)=C2Oc2ccc(S(=O)(=O)[O-])cc2)N(CCCCS(=O)(=O)[O-])c2ccc(S(=O)(=O)[O-])cc21.[Na+].[Na+].[Na+].[Na+]` [IRDye800CW]: the lifetime entry was “less than 1 ns”.
